Source: patent US20240262863A1, “PEPTIDE FRAGMENT AND USE THEREOF” (TOAGOSEI CO., LTD., priority 2021, published 2024)
FAM = 5(6)-carboxyfluorescein

Tested on: HeLa cells
Test: Evaluation of cell membrane penetrating ability of FAM-labelled constructs by flow cytometry
Format: cell-based, human
Settings: for MFI (mean fluorescent intensity): 10 μM in culture solution, 0.5% DMSO, 20 h incubation at 37° C., flow cytometer detector FL2; for MFI value compared to Example 2: 10 μM, 20 h incubation
Protocol: The cell membrane penetrating ability of samples 1 to 3 was evaluated using HeLa cells (an established cell line derived from human cervical cancer cells) as eukaryotic cells. […] In addition, “FAM” in Table 2 indicates the abovementioned fluorescent dye.
HeLa cells were cultured in DMEM (Dulbecco's modified Eagle's medium, manufactured by Fuji Film Wako Pure Chemical Industries, Cat. No. 043-30085) containing 10% FBS (fetal bovine serum), which is an ordinary culture medium.
HeLa cells adhering to the culture plate were washed with PBS, 0.25% trypsin/EDTA solution was added, and the cells were incubated for 3 min at 37° C. After incubation, the same DMEM medium including 10% FBS was added to deactivate the trypsin, and the cells were then precipitated by centrifugation for 5 min at 150×g. The supernatant produced by centrifugation was removed, and the same DMEM including 10% FBS was added to the precipitate (cell pellet) to prepare an approximately 1×10^5 cells/mL cell suspension. A total of 2 mL of the cell suspension was added to the wells of a commercial 6-hole (well) plate (AGC Techno Glass Co., Ltd) to seed the cells (at approximately 2×10^5 cells/well). Subsequent culturing for 3 h at 37° C. under conditions of 5% CO2 caused the cells to adhere to the bottom of the wells.
Next, the above 2 mM sample solution 1 was diluted with DMEM including 10% FBS to prepare a sample solution 1 in which the concentration of Sample 1 was 20 μM. A total of 1 mL of the culture supernatant was removed from the wells after the 3 h of culture, and 1 mL of the 20 μM sample solution 1 was added to the wells (that is, the concentration of Sample 1 in the culture solution in the wells was made 10 μM and the DMSO concentration was made 0.5%). The cells were then incubated for 20 h at 37° C. under conditions of 5% CO2. After such 20-h incubation, the culture supernatant was removed from the wells, and the cells in the wells were washed twice with 1 mL of PBS. A total of 200 μL of 0.25% trypsin/EDTA solution was then added to the wells, and the cells were incubated for 3 min at 37° C. After this incubation, 400 μL of the above DMEM containing 10% FBS was added to the wells to deactivate the trypsin, the cell suspension in the well was thereafter transferred to a tube, and the cells were collected. A total of 600 μL of PBS was then added to the wells to wash the wells. The PBS in the wells was then transferred to the above tube to collect the cells remaining in the wells in the tube. This tube was centrifuged for 5 min under conditions of 210×g at 4° C. After centrifugation the supernatant was removed, and the precipitate (cell pellet) was suspended (washed) in 1 mL of PBS and centrifuged under the same conditions as described above. This operation was repeated twice, and the supernatant was thereafter removed to obtain cells (a cell pellet) that had been cultured in medium including Sample 1.
The cell penetrating ability of Sample 1 was analyzed by using flow cytometry with respect to the cells (cell pellet) obtained above. An On-chip Flow cytometer (manufactured by On-chip Biotechnologies Co., Ltd.) was used as the flow cytometer.
For this analysis, the cell pellet obtained above was suspended in 50 μL of PBS. A total of 50 μL of 2× sample buffer for flow cytometry was further added to this suspension to prepare a cell suspension for analysis.
Gating was performed using the flow cytometer on the basis of forward scatter (FSC) and side scatter (SSC), a gate was set for the cell population under analysis, and fluorescent intensity was measured for the cell population within this gate. Analysis was performed so that the cell population was composed of about 10,000 cells. Fluorescent intensity was measured using the fluorescence detector FL2 (optimal detection wavelength close to 543 nm) of the flow cytometer, which can detect the fluorescent wavelength of FAM. […]

5(6)-carboxyfluorescein [Example 4, reference compound]
MFI (mean fluorescent intensity): 14.3

FAM-VVKSLVKVVKSLVK-CONH2 ({FAM}-VVKSLVKVVKSLVK-NH2) [Example 1]
MFI (mean fluorescent intensity): 1591
MFI value compared to Example 2: more than twice

FAM-VVRSLVKVVRSLVK-CONH2 ({FAM}-VVRSLVKVVRSLVK-NH2) [Example 2]
MFI (mean fluorescent intensity): 715

FAM-VVRSLVRVVRSLVR-CONH2 ({FAM}-VVRSLVRVVRSLVR-NH2) [Example 3]
MFI (mean fluorescent intensity): 489
MFI value compared to Example 2: greatly reduced
